Our source for the MIC, Activity and Ratio values is ChEMBL document CHEMBL6092216, “Development of α-Helical Antimicrobial Peptides with Imperfect Amphipathicity for Superior Activity and Selectivity” (J Med Chem, 2024).

Activity calls are given as the source filed them. Where a SMILES comes first, the peptide text is derived from it. [ ]: non-standard residue; d: D form. Hmpa(2S,3S) = CC[C@H](C)[C@H](O)C(=O)O

The test system of one series is Acinetobacter baumannii. Put plainly: Antibacterial activity against Acinetobacter baumannii ATCC 19606 assessed as inhibition of bacterial growth by tube microdilution assay. In kind it is functional. Background: Broth dilution looks for growth in wells or tubes with falling amounts of substance.
Series [1] has as its system Staphylococcus aureus. Put plainly: Antibacterial activity against Staphylococcus aureus ATCC 6538 assessed as inhibition of bacterial growth by tube microdilution assay. Type of series: functional.
The next series relates to Erythrocyte. Put plainly: Induction of hemolysis in mouse red blood cells at 1.56 to 100 ug/ml incubated for 1 hr. Type of series: toxicity, cell-based. Particulars: dose 1.56-100 µg/ml.
A further series has as its system HEK-293T. The experiment in a line: Cytotoxicity against HEK293T cells assessed as effect on cell viability at 3.13 to 400 ug/ml incubated for 24 hrs by CCK-8 assay. Particulars: human, dose 3.13-400 µg/ml. Type of series: toxicity, cell-based. (In general: Formazan colour is commonly taken as a measure of viable cells.)
Another series deals with HaCaT. The experiment in a line: Cytotoxicity against human HaCaT cells assessed as effect on cell viability at 3.13 to 400 ug/ml incubated for 24 hrs by CCK-8 assay. In kind it is toxicity, cell-based. To be noted: dose 3.13-400 µg/ml.
A further series relates to Cell membrane. Put plainly: Induction of membrane permeabilization in Staphylococcus aureus ATCC 6538 assessed as increase in fluorescence intensity at 5XMIC measured for 90 mins by propidium iodide staining based fluorescence analysis. In kind it is subcellular.
In series [2] the test system is Staphylococcus aureus. The experiment in a line: Induction of bacterial cell rupture in Staphylococcus aureus ATCC 6538 assessed as cell disruption at 5XMIC measured after 30 mins by scanning electron microscopy. In kind it is functional, organism-based.
Series [3] deals with Staphylococcus aureus. Put plainly: Induction of bacterial cell rupture in Staphylococcus aureus ATCC 6538 assessed as cell disruption at 5XMIC measured after 30 mins by transmission electron microscopy. In kind it is functional, organism-based.
Series [4] relates to Staphylococcus aureus. Put plainly: Bactericidal activity against Staphylococcus aureus ATCC 6538 assessed as elimination of bacterial cells at 5X to 10X MIC by killing kinetic assay. In kind it is functional, organism-based.
The test system of series [5] is Staphylococcus aureus. Put plainly: Ratio of MIC for bactericidal activity against Staphylococcus aureus ATCC 6538 measured after 35 passages to MIC for bactericidal activity against Staphylococcus aureus ATCC 6538 measured after short period of drug exposure. In kind it is functional.
The subject of series [6] is Staphylococcus aureus. The experiment in a line: Antibacterial activity against Staphylococcus aureus ATCC 6538 infected in BALB/c mouse assessed as inhibition of bacterial colonization on wounded skin at 0.5 mg/ml applied on skin and measured after 2 hrs. In kind it is functional, organism-based.

Broadly, the MIC is the smallest concentration in the dilution series that meets the test's criterion for growth inhibition. With `CC[C@H](C)[C@H](NC(=O)CN)C(=O)N[C@@H](CCCCN)C(=O)N[C@@H](CCCCN)C(=O)NCC(=O)O[C@H](C(=O)N[C@@H](CCCCN)C(=O)N[C@@H](CCCCN)C(=O)N[C@@H](CC(C)C)C(=O)N[C@@H](CC(C)C)C(=O)O)[C@@H](C)CC` (H-GIKKG[Hmpa(2S,3S)]KKLL-OH), the MIC with Acinetobacter baumannii and in the series on Staphylococcus aureus [1] was more than 200 µg/mL in each case.
With `CC[C@H](C)[C@H](N)C(=O)N[C@@H](CCCCN)C(=O)N[C@@H](CCCCN)C(=O)NCC(=O)O[C@H](C(=O)N[C@@H](CCCCN)C(=O)N[C@@H](CCCCN)C(=O)N[C@@H](CC(C)C)C(=O)N[C@@H](CC(C)C)C(=O)O)[C@@H](C)CC` (H-IKKG[Hmpa(2S,3S)]KKLL-OH), the MIC in the series on Acinetobacter baumannii and in the series on Staphylococcus aureus [1] was more than 200 µg/mL throughout. Moreover, the Activity entry in the series on Erythrocyte, in the series on HEK-293T and with HaCaT was “Non-toxic” in each case.
`CN[C@H](CC(C)C)C(=O)N[C@H]1C(=O)N[C@@H](CC(N)=O)C(=O)N[C@H]2C(=O)N[C@H]3C(=O)N[C@H](C(=O)N[C@H](C(=O)O)c4cc(O)cc(O)c4-c4cc3ccc4O)[C@H](O)c3ccc(c(Cl)c3)Oc3cc2cc(c3O[C@@H]2O[C@H](CO)[C@@H](O)[C@H](O)[C@H]2O[C@H]2C[C@](C)(N)[C@H](O)[C@H](C)O2)Oc2ccc(cc2Cl)[C@H]1O` [VANCOMYCIN]: the result with Cell membrane was inactive. For the same compound, the Activity entry in the series with Staphylococcus aureus [2] was “Active; Limited Cell Disruption With Most Cells Remain Intact And Unaffected”; in the series on Staphylococcus aureus [3], “Active; Limited Cell Disruption With Most Cells Remain Intact And Unaffected”; with Staphylococcus aureus [4], “Active; Slow Killing Rate”. Moreover, the Ratio in the series with Staphylococcus aureus [5] was 4. The outcome in the series with Staphylococcus aureus [6] was Active.
Take H-FIKKVKKVKKAIKEGIKK-OH: the minimum inhibitory concentration (MIC) is 37.5 µg/mL with Acinetobacter baumannii and 75 µg/mL in the series on Staphylococcus aureus [1].
The corresponding values for H-GIKKFIKKVKKVKKAIKE-OH are 37.5 µg/mL and 75 µg/mL.
On to H-IKKFIKKVKKVKKAIK-OH, for which the MIC in the series with Acinetobacter baumannii and in the series with Staphylococcus aureus [1] was 4.68 µg/mL throughout. Further, the Activity entry in the series on Erythrocyte, with HEK-293T and in the series with HaCaT was “Non-toxic” throughout.
Take H-IKKFIKKVKKVKKAIKEG-OH: the results for the MIC with Acinetobacter baumannii and in the series with Staphylococcus aureus [1] were 37.5 µg/mL and 75 µg/mL, respectively. In addition, the Activity entry in the series with Erythrocyte, in the series on HEK-293T and in the series on HaCaT was “Non-toxic” each time.
For the compound H-IKKVKKVKKAIKEGIKKG-OH, the MIC in the series with Acinetobacter baumannii and with Staphylococcus aureus [1] was 75 µg/mL each time.
Consider H-KFIKKVKKVKKAIKEGIK-OH, for which the values for the MIC in the series with Acinetobacter baumannii and in the series with Staphylococcus aureus [1] were 37.5 µg/mL and 75 µg/mL, respectively.
The corresponding values for H-KKFIKKVKKVKKAIKEGI-OH are 37.5 µg/mL and 75 µg/mL.
The corresponding values for H-RGIKKFIKKVKKVKKAIK-OH are 2.34 µg/mL and 2.34 µg/mL.
With H-RRGIKKFIKKVKKVKKAIKEGIKKGIKKLL-OH, the MIC with Acinetobacter baumannii and in the series with Staphylococcus aureus [1] was 9.37 µg/mL throughout.
As for H-SGGGSNIAHGPGGRRHIA-OH, the MIC with Acinetobacter baumannii and in the series with Staphylococcus aureus [1] was more than 200 µg/mL throughout.
